Experiments:
[1] = target: T1, pig kidney aromatic amino acid decarboxylase (pkAAAD) (Sus scrofa, UniProt P80041); assay: Substrate screen for tryptophan decarboxylation, pkAAAD; type: biochemical; parameters: key: +: a clear ninhydrin-positive spot at the Rf of standard tryptophan derivatives after 16-65 h; (+): a weak spot in the product region; −: no product observed; NR: experiment not run; conditions: tryptophan derivative, PLP, pH 7.5, 37° C.
T1 construct: Frozen tissue was partially thawed in lysis buffer, then it was extracted and partially purified; from tissue; host or cells: pig kidney
T1 sequence (P80041 1-486): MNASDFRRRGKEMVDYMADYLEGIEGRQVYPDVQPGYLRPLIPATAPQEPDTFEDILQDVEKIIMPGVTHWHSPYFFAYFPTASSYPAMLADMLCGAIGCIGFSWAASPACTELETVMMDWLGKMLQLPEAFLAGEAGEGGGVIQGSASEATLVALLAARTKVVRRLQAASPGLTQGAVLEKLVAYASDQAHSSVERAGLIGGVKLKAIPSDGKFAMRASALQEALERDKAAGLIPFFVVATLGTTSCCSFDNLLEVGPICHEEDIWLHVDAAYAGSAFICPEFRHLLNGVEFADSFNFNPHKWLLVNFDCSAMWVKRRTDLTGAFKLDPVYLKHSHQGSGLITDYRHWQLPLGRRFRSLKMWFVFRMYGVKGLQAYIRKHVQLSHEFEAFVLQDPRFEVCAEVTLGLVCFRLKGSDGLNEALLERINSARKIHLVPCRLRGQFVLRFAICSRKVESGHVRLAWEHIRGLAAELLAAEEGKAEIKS

[2] = target: T2, tryptophan decarboxylase TDC2 (Camptotheca acuminata, UniProt P93083); assay: Substrate screen for tryptophan decarboxylation, TDC2; type: biochemical, C. accuminata; parameters: key: +: a clear ninhydrin-positive spot at the Rf of standard tryptophan derivatives after 16-65 h; (+): a weak spot in the product region; −: no product observed; NR: experiment not run; conditions: tryptophan derivative, PLP, pH 7.5, 37° C.
T2 construct: made in house; host or cells: E. coli DH5α (pKK233 plasmid from C. Nessler)
T2 sequence (P93083 1-498): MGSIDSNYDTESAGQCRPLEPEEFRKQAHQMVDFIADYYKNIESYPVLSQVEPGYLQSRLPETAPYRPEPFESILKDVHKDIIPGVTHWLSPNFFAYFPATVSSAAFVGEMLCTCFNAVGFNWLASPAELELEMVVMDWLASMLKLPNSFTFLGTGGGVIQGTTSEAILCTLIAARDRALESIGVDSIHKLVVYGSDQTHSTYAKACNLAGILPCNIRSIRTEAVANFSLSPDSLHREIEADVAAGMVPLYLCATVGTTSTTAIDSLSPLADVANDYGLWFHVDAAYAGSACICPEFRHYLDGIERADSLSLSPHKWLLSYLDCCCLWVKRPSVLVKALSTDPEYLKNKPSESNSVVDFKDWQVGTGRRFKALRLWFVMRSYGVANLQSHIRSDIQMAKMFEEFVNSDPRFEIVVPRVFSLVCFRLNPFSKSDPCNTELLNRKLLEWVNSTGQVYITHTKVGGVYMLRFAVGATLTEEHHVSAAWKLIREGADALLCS
Procedure: (§1) A mixture containing 1 μmole of the tryptophan derivative, 0.05 μmole of PLP and 50 μmol of L-serine in 40 mM pH 7.5 KPi buffer was warmed to 37° C., then enzyme solution was added to give a final volume of 1 mL. Aliquots (100 HL) were quenched at intervals and were evaporated in a Savant Speed-vac as in Example 6. For TLC analysis, CH2Cl2/EtOH/H2O/HOAc 49:49:1:1 was used as the solvent. The plates were visualized with short-wave UV light and ninhydrin as in Example 6.
(§2) HPLC techniques were used to monitor the decarboxylation of substituted tryptophans. Mass spectral analysis of the collected HPLC peaks was used to confirm the identity of several tryptamine derivatives, as shown in Table 5.

TDC2 = target: T3, TDC2 (Camptotheca acuminata, UniProt P93083); assay: Relative decarboxylation rates by Ehrlich's reagent, TDC2; type: biochemical, C. accuminata
T3 construct: made in house; host or cells: E. coli DH5α (pKK233 plasmid from C. Nessler)
T3 sequence (P93083 1-498): T2 sequence (P93083 1-498)
Procedure: (§3) […] Reaction aliquots were quenched in microcentrifuge capsules containing 50 μL each of 6M HCl to quench the enzyme reaction at 2, 5, and 20 min. Quenched aliquots were heated at 50° C. for 40 min with 750 μL each of Ehrlich's reagent (2:24:74 w/v/v 4-(diethyl)aminobenzaldehyde: conc HCl: ethanol). Absorbance was read at 580-nm and compared with standards of serotonin (10-250 μM) or tryptamine (50 to 2000 μM).
(§4) Relative rates for decarboxylation of L-5-hydroxytryptophan (L-5-HOtrp) and L-tryptophan were determined for TDC1 and TDC2 by use of Ehrlich's reagent, discussed in Example 10.

TDC1 = target: T4, TDC1 (Camptotheca acuminata, UniProt P93082); assay: Relative decarboxylation rates by Ehrlich's reagent, TDC1; type: biochemical, C. accuminata
T4 construct: made in house; host or cells: E. coli DH5α (pKK233 plasmid from C. Nessler)
T4 sequence (P93082 1-502): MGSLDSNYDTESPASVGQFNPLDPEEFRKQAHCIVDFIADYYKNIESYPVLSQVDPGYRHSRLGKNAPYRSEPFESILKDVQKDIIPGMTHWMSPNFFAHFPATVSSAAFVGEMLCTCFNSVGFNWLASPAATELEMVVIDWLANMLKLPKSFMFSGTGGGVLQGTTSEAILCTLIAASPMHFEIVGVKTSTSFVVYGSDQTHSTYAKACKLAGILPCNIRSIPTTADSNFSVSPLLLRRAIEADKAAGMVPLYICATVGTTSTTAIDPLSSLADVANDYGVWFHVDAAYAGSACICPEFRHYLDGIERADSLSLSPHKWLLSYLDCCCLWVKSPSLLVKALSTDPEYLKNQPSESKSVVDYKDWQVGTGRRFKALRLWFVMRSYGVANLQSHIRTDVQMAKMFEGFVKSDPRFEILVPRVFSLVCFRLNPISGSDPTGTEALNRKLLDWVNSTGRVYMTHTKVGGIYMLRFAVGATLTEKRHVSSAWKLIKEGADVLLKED
Procedure: as §3, §4

[3] = target: T5, tryptophan decarboxylase TDC1 (Camptotheca acuminata, UniProt P93082); assay: Substrate screen for tryptophan decarboxylation, TDC1; type: biochemical, C. accuminata; parameters: key: +: a clear ninhydrin-positive spot at the Rf of standard tryptophan derivatives after 16-65 h; (+): a weak spot in the product region; −: no product observed; NR: experiment not run; conditions: tryptophan derivative, PLP, pH 7.5, 37° C.
T5 construct: made in house; host or cells: E. coli DH5α (pKK233 plasmid from C. Nessler)
T5 sequence (P93082 1-502): T4 sequence (P93082 1-502)
Procedure: as §1, §2

pkAAAD [4] = target: T6, pkAAAD (Sus scrofa, UniProt P80041); conditions: literature (Sourkes 1987), ratio :1; cited from earlier work
T6 construct: Frozen tissue was partially thawed in lysis buffer, then it was extracted and partially purified; from tissue; host or cells: pig kidney
T6 sequence (P80041 1-486): T1 sequence (P80041 1-486)

pkAAAD [5] = target: T6, pkAAAD; assay: pkAAAD-catalyzed decarboxylation rate ratio by HPLC; type: biochemical, pig; conditions: HPLC of acid-quenched aliquots, ratio to 1
Procedure: Tryptophan synthase activity was assayed by monitoring the increase in absorbance at 290 nm of a mixture containing serine, indole and PLP (Higgins, W., et al., Biochemistry, 1979, 18, 4827). TnA-catalyzed tryptophan synthesis was also measured by the 290 nm assay, while the tryptophan lyase reaction rate was measured by monitoring the reduction in NADH in reaction mixtures containing L-tryptophan and lactate dehydrogenase, indicating the amount of pyruvate released. Tryptophan decarboxylase was assayed colorimetrically by monitoring the sabsorbance at 580 nm produced by serotonin (AAADs) or tryptamine (TDCs) following treatment of reaction aliquots with Ehrlich's reagent (4-N,N-(dimethyl)aminobenzaldehyde in ethanolic HCl; Nakazawa, H.; Kumagi, H.; Yamada, H. Biochem Biophys. Res. Commun., 1974, 61, 75-82). Serotonin could be detected with approximately 5-fold higher sensitivity by this method as compared with tryptamine. The Ehrlich reagent assay using a microtiter plate format for simultaneous analysis of multiple enzyme samples may also be used. HPLC analysis was performed on acid-quenched reaction aliquots by using a base-deactivated C8 reversed-phase support (Shandon Hypersil BD8). […]

SMILES	pkAAAD (decarboxylation substrate screen) [1]	TDC2 (decarboxylation substrate screen) [2]	ratio trp/5HOtrp TDC2 (relative decarboxylation rate) (TDC2; pH 7.5)	ratio trp/5HOtrp TDC2 (relative decarboxylation rate) (TDC2; pH 8.5)	ratio trp/5HOtrp TDC2 (relative decarboxylation rate) (TDC2; pH 9.5)	ratio trp/5HOtrp TDC1 (relative decarboxylation rate) (TDC1; pH 7.5)	ratio trp/5HOtrp TDC1 (relative decarboxylation rate) (TDC1; pH 8.5)	ratio trp/5HOtrp TDC1 (relative decarboxylation rate) (TDC1; pH 9.5)	TDC1 (decarboxylation substrate screen) [3]	accepted ratio of DOPA to L-5-hydroxytryptophan decarboxylation (pkAAAD [4])	rate ratio of DOPA decarboxylation relative to that of L-5-hydroxytryptophan (pkAAAD [5])
N[C@@H](Cc1c[nH]c2ccccc12)C(=O)O [L-tryptophan]	(+)	+	64.1	38.3	53.6	15.1	10.5	10.3	+	–	–
N[C@@H](Cc1ccc(O)c(O)c1)C(=O)O [DOPA]	–	–	–	–	–	–	–	–	–	approximately 5	4.5

— patent US20030096379A1, “Method for producing tryptamine derivatives” (priority 2001, published 2003)
